This is an account of results in article PMC6269682, “Apocynin: Chemical and Biophysical Properties of a NADPH Oxidase Inhibitor” (Molecules, 2013).

For test [1], the target named is T1, human serum albumin (HSA) (Homo sapiens, UniProt P02768).
T1 construct: gene ALB
As to the kind of experiment: probe fluorescence enhancement and blue shift on binding; displaced by apocynin.

In test [2] the target is T1, human serum albumin (HSA). As to the kind of experiment: intrinsic fluorescence quenching (Stern-Volmer, apparent Ka), with displacement of fluorescent site probes. Format: binding.

SMILES strings stand for the structures.

T1 sequence (P02768 25-609): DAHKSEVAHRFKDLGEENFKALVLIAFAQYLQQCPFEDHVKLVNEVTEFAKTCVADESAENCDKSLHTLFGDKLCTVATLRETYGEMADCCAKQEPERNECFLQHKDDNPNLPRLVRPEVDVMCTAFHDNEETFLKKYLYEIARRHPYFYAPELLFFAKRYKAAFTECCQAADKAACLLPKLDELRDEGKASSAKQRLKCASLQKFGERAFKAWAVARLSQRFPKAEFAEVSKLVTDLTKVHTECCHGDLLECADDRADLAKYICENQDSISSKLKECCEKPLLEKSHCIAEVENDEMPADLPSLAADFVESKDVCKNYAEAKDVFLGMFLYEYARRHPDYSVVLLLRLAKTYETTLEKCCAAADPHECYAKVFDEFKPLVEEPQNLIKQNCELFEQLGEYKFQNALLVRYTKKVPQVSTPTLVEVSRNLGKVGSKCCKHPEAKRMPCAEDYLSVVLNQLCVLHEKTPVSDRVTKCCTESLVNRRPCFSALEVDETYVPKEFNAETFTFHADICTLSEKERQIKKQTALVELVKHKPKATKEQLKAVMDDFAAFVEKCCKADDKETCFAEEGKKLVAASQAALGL

On to `CN(C)c1cccc2c(S(=O)(=O)NCC(=O)O)cccc12` [DG, dansylglycine], for which the “probe fluorescence enhancement and blue shift on binding; displaced by apocynin” value in test [1] is recorded as “apocynin was able to displace both fluorescent probes, but a greater effect was observed using DNSA”.
Take `COc1cc(C(C)=O)ccc1O` [APO, 4-hydroxy-3-methoxyacetophenone]: the Kd in test [2] is 45.7 µM.
For `CN(C)c1cccc2c(S(N)(=O)=O)cccc12` [DNSA, 5-(dimethylamino)-1-naphthalenesulfonamide], the “probe fluorescence enhancement and blue shift on binding; displaced by apocynin” value in test [1] is reported as “binding of these probes to albumin provoked a significant increase in their fluorescence quantum yield”.
